Assay results published in US20140163075A1, “MODULATION OF THE UBIQUITIN-PROTEASOME SYSTEM (UPS)” (NETHERLAND CANCER INSTITUTE, priority 2011, published 2014).
“Also recorded” adds a separate entry of the source. Like-named read-outs stand apart in the source and are kept apart here. Residues, ends and D or L forms follow the SMILES beside them. *: point of attachment. Cbz = O=C(OCc1ccccc1)*

Legend:
[1] = tested on: 20S and/or 26S proteasome; assay: FACS-based proteasome activity assay with Me4BodipyFL-Ahx3Leu3VS activity probe in MelJuSo wild type cells; format: cell-based, human
Description: MelJuSo cells are washed, trypsinized and resuspended in medium containing FBS and antibiotics. After counting the concentration is adjusted to 200,000 cells per mL. Using the Wellmate microplate dispenser fitted with small bore nozzle tubing, 50 μL of cell suspension is transferred to each well of a black 384 wells plate (10,000 cells/well).
A brief spin down will prevent any liquid from being lost when the plate cover is removed. Using a Hamilton liquid handling workstation the compounds are diluted to appropriate concentrations. To “wash” the cells prior to exposure 30 μL of medium is removed from each well and is replaced with fresh medium. Then the compounds are added to the medium of the cells (final concentration 5 μM).
Using the Wellmate microplate dispenser fitted with small bore nozzle tubing, […] of probe suspension is transferred to each well resulting in a final probe concentration of 200 nM. Plates are left to incubate for two hours. Then the medium is removed and the cells are washed one time with PBS. The PBS is removed and 10 μL of trypsin is added to each well. The plates are left on a shaker for 2 minutes, placed in an incubator for 5 minutes and put on a shaker again for 2 minutes. 40 μL of PBS containing 2% FBS is added per well and the plates are put on the shaker for 2 minutes. Finally, 20 μL of PBS containing 4% formaldehyde is added and the plates are left to shake for at least 15 minutes. Plates are left on a shaker at 4° C. until they can be measured.
The FITS unit is installed on the FACS and everything is turned on. To remove air from the system and ascertain that everything works fine the system is primed twice. One by one the plates are brought down and measured. In between plates a “daily clean” cycle is performed to prevent the system from becoming clogged. After the last plate the system should be cleaned again.
Analysis is always performed per plate. Throughout the analysis the following parameters are considered: • Forward Scatter (FSC): size of the cell • Side Scatter (SSC): granularity of the cell • Number of events (#) • Probe signal (FL-1): proteasome activity • FL-2 and FL-3: signal in other channels
All DMSO samples are checked and aberrant wells (low # events, high SSC, no signal) are excluded. The average of the FL-1 from all remaining DMSO samples is used to calculate the “ratio vs. DMSO” and the FL-1 log 2 ratio of the experimental samples. This will result in DMSO samples having a FL-1 log 2 value around zero. Compounds are considered “activators” or “hits” if the FL-1 log 2 ratio is >1, and inhibitors if the FL-1 log 2 ratio is […].
(§1) Cells were washed once with phosphate buffered saline (PBS, 1 GIBCO tablet in 500 mL MilliQ). Fresh medium containing the compound at the indicated concentration was added. After the incubation time 200 nM of Me4BodipyFL-Ahx3Leu3VS activity probe was added to the cells and after two hours of incubation cells were harvested for subsequent analysis by FACS or post-lysis fluorescence detection.
Celts were washed once with PBS, trypsin was added and the plate was placed at 37° C. for 5 minutes to allow the cells to detach. When detached the cells were resuspended in PBS supplemented with 2% FBS. Cells were fixed with formaldehyde (final concentration 1% in PBS). All samples were measured using a FACSCalibur flow cytometer (BD Biosciences). […] The complete workflow used for the compound screens is described above in more detail.
The compound libraries mentioned above are screened using a FACS-based activity assay. The proteasome activity probe Me4BodipyFL-Ahx3Leu3VS activity probe is used to fluorescently label the proteasome. This probe binds irreversibly to the catalytic domains of the 20S CP. When proteasome activity is increased, increased probe binding results in an increase in fluorescent signal compared to untreated cells.

proteasome [2] = conditions: literature overview; cited from earlier work
MelJuSo wild type cells = assay: Cell viability (resazurin) assay, MG132 induced cell death; conditions: 1 μM, 24 hours
[3] = tested on: proteasome subunits (β2- and β5-subunits); assay: SDS-PAGE in-gel fluorescence of probe-labelled proteasome subunits in MelJuSo (MEL-JUSO) cells; format: cell-based, human; conditions: for activation effect on the β2- and β5-subunits: MEL-JUSO cells, p38 inhibitor panel tested at 1 and 5 μM, effect at 5 μM, FIG. 14B
Description: as §1
Cells were washed once with PBS, trypsin (6 well plate: 500 μL, 12 well plate: 200 μL, 24 well plate: 100 μL) was added and the plate was placed at 37° C. for 5 minutes to allow the cells to detach. When fully detached the cells were resuspended in fresh culture medium. Medium with cells was collected and after a centrifugation step (1100 ref for 2 minutes) the cells (pellet) were resuspended in cold HR buffer (50 mM Tris pH=7.4, 5 mM MgCl2, 250 mM sucrose, 1 mM DTT and 2 mM ATP). Lysis of the cells is achieved by sonification (Bioruptor, high intensity for 5 minutes with an ON/OFF cycle of 30 seconds) at 4° C. After a centrifugation step (13.600 rpm for 10 minutes) to remove cell debris the protein concentration (absorbance at 280 nm) of the supernatant is measured with a NanoDrop spectrophotometer. Fresh HR buffer without any cells was used as a blank,
Equal amounts of protein (15-20 μg) were denatured by heating the samples for 10 minutes at 71° C. in loading buffer (450 μL 4× loading buffer (Invitrogen), 45 μL β-Mercaptoethanol and 105 μl, MilliQ, 2 parts sample to 1 part loading buffer). The samples were loaded onto a 12% SDS-PAGE gel using the NuPAGE system from Invitrogen. MOPS (3-(N-morpholino)propanesulfonic acid) was used as a running buffer. Gels run at 180 V for approximately 1.5-2.0 hours and were directly imaged using the ProXPRESS 2D Proteomic imaging system (Perkin Elmer). Resolution was set at 100 μm, excitation at 480/30 and emission at 530/30. To verify protein loading, gels were stained with Coomassie Brilliant Blue. Images were analyzed using Totallab analysis software (Nonlinear Dynamics, Newcastle upon Tyne, UK) to quantify the intensity of the bands detected.
Additionally, FACS and SDS-PAGE validation experiments were done in which cells were incubated for 16 hours with 0.1, 0.5, 1.0 or 5.0 μM compound.
The proteasomal subunits are then labeled using the fluorescent […] probe, which selectively binds only to active β-subunits of the proteasome. The fluorogenic-labeled proteasome subunits were visualized directly in-gel by fluorescence scanning.
To further investigate this, MelJuSo wild type cells were incubated with 5 μM Win 62,577 for one hour. Then the medium was changed for regular medium without the compound present. After one or two hours of “washout” cells were stained with the proteasome activity probe and analyzed with SDS-PAGE followed by fluorescent scanning of the gel. The results of this experiment are depicted in FIG. 17.

p38α = p38α (Homo sapiens, UniProt Q16539); conditions: literature [80, 83]; cited from earlier work
Chain of p38α (Q16539 whole entry): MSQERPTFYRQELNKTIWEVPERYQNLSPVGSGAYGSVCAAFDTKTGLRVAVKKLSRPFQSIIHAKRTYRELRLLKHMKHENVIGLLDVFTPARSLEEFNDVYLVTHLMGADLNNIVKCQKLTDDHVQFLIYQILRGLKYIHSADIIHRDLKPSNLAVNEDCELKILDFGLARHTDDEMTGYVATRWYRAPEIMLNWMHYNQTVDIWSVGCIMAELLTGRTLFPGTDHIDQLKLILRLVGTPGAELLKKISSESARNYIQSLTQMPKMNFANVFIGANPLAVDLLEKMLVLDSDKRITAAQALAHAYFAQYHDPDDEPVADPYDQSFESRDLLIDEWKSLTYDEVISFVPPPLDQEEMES

proteasome [4] = conditions: literature overview; cited from earlier work; remark: listed apart in the source
[5] = LOPAC and JHCCL library screen, 5 μM compound, 16 hours, 200 nM probe two hours

CCCn1c(=O)c2[nH]c(C3CCCC3)nc2n(CCC)c1=O [DPCPX, 8-cyclopenthyl-1,3-dipropylxanthine]
time dependence of proteasome activation (FL-1 log 2 ratio) ([1]; 0.1, 0.5, 1.0 or 5.0 μM compound for 4, 16, 24 or 48 hours): both concentration and time dependent; also recorded: displayed an increase in activation over time
screening hit (FL-1 log 2 ratio >1.00 and no exclusion criterion met) [1, 5]: identified as hits

CCCCC/C=C\C/C=C\CCCCCCCC(=O)O [Linoleic acid]
Results: purified proteasome/lysate (proteasome [2]): Increases all 3 proteasome

CC(C)C[C@@H](C=O)NC(=O)[C@H](CC(C)C)NC(=O)[C@H](CC(C)C)NC(=O)OCc1ccccc1 [MG132] (Cbz-Leu-Leu-Leu-aldehyde)
fluorescent probe signal compared to untreated cells [1]: reduces the signal compared to untreated cells
cytotoxicity (MelJuSo wild type cells): highly cytotoxic

CCCCCCCC/C=C\CCCCCCCC(=O)O [Oleic acid]
Results: purified proteasome/lysate (proteasome [2]): Increases all 3 proteasome

COc1cccc(-c2cc(=O)c3ccccc3o2)c1N [PD98059]
activation effect on the β2- and β5-subunits [3]: most pronounced; also recorded: pronounced activation effect
activation effect on the β2- and β5-subunits ([3]; listed as PD98052): seems to enhance the activity

Oc1ccc(-c2nc(-c3ccc(F)cc3)c(-c3ccncc3)[nH]2)cc1 [SB202190]
activation effect on the β2- and β5-subunits [3]: pronounced activation effect
activation effect on the β2- and β5-subunits ([3]; listed as SB202150): most pronounced
inhibition of p38α isoform (p38α): inhibits both the p38α and p38β-isoforms

CCCCCCCCCCCCOS(=O)(=O)[O-].[Na+] [SDS]
Results: purified proteasome/lysate (proteasome [2]): Increases all 3 proteasome

Fc1ccc(-c2nc3n(c2-c2ccncc2)CCS3)cc1 [SKF86002]
inhibition of p38α isoform (p38α): inhibits only p38α

Cc1cc(C(=O)CN2CCCC2)c(C)n1-c1ccc(F)cc1 [USP14 inhibitor, IU1]
FL-1 log 2 score compared to the compounds identified in the screen ([1]; 5 μM, 16 hours, triplicate): scores relatively low
Results: purified proteasome/lysate (proteasome [2]): Increases all 3 proteasome
Results: live cells (proteasome [4]): Increases all 3

C#C[C@]1(O)CC[C@H]2C3CCC4=Cc5nc6nc7ccccc7n6cc5C[C@]4(C)C3CC[C@@]21C (some centres unmarked) [Win 62,577]
concentration dependence of proteasome activation (FL-1 signal) [1]: dose-dependent increase of the fluorescent signal
screening hit (FL-1 log 2 ratio >1.00 and no exclusion criterion met) [1]: identified as hits
time dependence of proteasome activation (FL-1 log 2 ratio) [1]: mild decrease after 48 hours of incubation
probe signal after one hour of incubation, no washout [3]: strong activation; also recorded: clear increase in signal
probe signal after one hour of washout [3]: still more than the untreated control but less when compared to the no washout
probe signal after two hours of washout [3]: disappeared
timeframe of onset and termination of increasing proteasome activity [3]: 1 to 2 h

CC/C=C\C/C=C\C/C=C\CCCCCCCC(=O)O [alpha linolenic acid]
Results: purified proteasome/lysate (proteasome [2]): Increases all 3 proteasome

CN1[C@@H]2CC[C@H]1C[C@@H](OC(c1ccccc1)c1ccccc1)C2 [benztropin]
screening hit (FL-1 log 2 ratio >1.00 and no exclusion criterion met) [1, 5]: initially identified in the JHCCL screen

OCCN(CCO)c1nc(N2CCCCC2)c2nc(N(CCO)CCO)nc(N3CCCCC3)c2n1 [dipyrimadole, Dipyrimadole]
screening hit (FL-1 log 2 ratio >1.00 and no exclusion criterion met) [1, 5]: identified as hits in both

CN(C)CCC[C@@]1(c2ccc(F)cc2)OCc2cc(C#N)ccc21 [escitalopram]
screening hit (FL-1 log 2 ratio >1.00 and no exclusion criterion met) [1, 5]: initially identified in the JHCCL screen

CC(C)OC(=O)C(C)(C)Oc1ccc(C(=O)c2ccc(Cl)cc2)cc1 [fenofibrate, Fenofibrate]
screening hit (FL-1 log 2 ratio >1.00 and no exclusion criterion met) [1, 5]: identified as hits

CN(C)C(=O)C(CCN1CCC(O)(c2ccc(Cl)cc2)CC1)(c1ccccc1)c1ccccc1 [loperamide, Loperamide]
screening hit (FL-1 log 2 ratio >1.00 and no exclusion criterion met) [1]: identified as hits

CN1C[C@H](CNC(=O)OCc2ccccc2)C[C@@H]2c3cccc4c3c(cn4C)C[C@H]21 [metergoline, Metergoline]
screening hit (FL-1 log 2 ratio >1.00 and no exclusion criterion met) [1, 5]: identified as hits

CC#C[C@]1(O)CC[C@H]2[C@@H]3CCC4=CC(=O)CCC4=C3[C@@H](c3ccc(N(C)C)cc3)C[C@@]21C [mifepristone, Mifepristone]
screening hit (FL-1 log 2 ratio >1.00 and no exclusion criterion met) [1, 5]: identified as hits

O=c1[nH]c2ccccc2n1C1CCN(CCCC(c2ccc(F)cc2)c2ccc(F)cc2)CC1 [pimozide, Pimozide]
screening hit (FL-1 log 2 ratio >1.00 and no exclusion criterion met) [1, 5]: identified as hits

Nc1ccc2cc3ccc(N)cc3nc2c1 [proflavine, Proflavine]
screening hit (FL-1 log 2 ratio >1.00 and no exclusion criterion met) [1, 5]: identified as hits

COc1ccc(CCN(C)CCCC(C#N)(c2ccc(OC)c(OC)c2)C(C)C)cc1OC (centres unmarked) [verapamil, Verapamil]
screening hit (FL-1 log 2 ratio >1.00 and no exclusion criterion met) [1]: identified as hits in both

Cardiolipin
Results: purified proteasome/lysate (proteasome [2]): Increases mainly

Ceramides
Results: purified proteasome/lysate (proteasome [2]): Increases mainly

Lysophosphatidylinositol
Results: purified proteasome/lysate (proteasome [2]): Increases mainly

Medroxyprogesterone
screening hit (FL-1 log 2 ratio >1.00 and no exclusion criterion met) [1]: initially identified in the JHCCL screen

Methylbenzethonium
screening hit (FL-1 log 2 ratio >1.00 and no exclusion criterion met) [1, 5]: identified as hits

Polyarginine
Results: purified proteasome/lysate (proteasome [2]): Increases mainly

Polylysine
Results: purified proteasome/lysate (proteasome [2]): Increases mainly
